Data: patent publication US10624947B2, “Bactericidal peptides and uses thereof” (INDIANA UNIVERSITY RESEARCH AND TECHNOLOGY CORPORATION, priority 2016, dated 2020)
≈ marks a conversion by molar mass, not a printed value. Entries after “also recorded” stand apart in the source; their conditions may differ. Where two headings read alike, the source gives them in different places. Square brackets hold non-standard residues; d marks the D form. Ends that are not written are not given here. Peptide text beside a SMILES is read from it. AEEA = NCCOCCOCC(=O)O

Assays:
Pseudomonas aeruginosa = format: cell-based
Protocol: (§4) Antimicrobial activity was determined using the broth microdilution method based on the general recommendation of the Clinical and Laboratory Standards Institute. Bacteria were grown in Mueller-Hinton broth at 37° C. until OD625 reached 0.06, and then bacteria were further diluted into 1:20 for later use. […] 10 microliter (μL) of diluted bacteria was mixed with 90 μL of peptides at varying concentrations followed by incubation at 37° C. for 16-18 hours. The MIC is the lowest peptide concentration at which visible growth was inhibited. The MIC value was determined at least twice in independent experiments and typically in 3-4 assays.

V. vulnificus = experiment: Iron-dextran septicemia model; format: in vivo, mice (strain CD-1); conditions: 10 or 20 μM intraperitoneally 1 h after V. vulnificus
Protocol: (§1) FIGS. 23A, B show the efficacy and toxicity of modified peptides in mice. […] The survival of mice injected intraperitoneally with iron dextran at 48 h after intraperitoneal injection of 10 or 20 μM of the modified peptides. […] Vibrio vulnificus (V. v.) strain CMCP6 was injected at 1×10^6 CFU. […] All mice receive iron dextran by intraperitoneal injection. Where indicated, 1 h later 10^6 bacterial CFU in 100 μL was injected into the peritoneum (opposite side). 1 h later, 100 μL of the peptide at the indicated concentration was administered on the same side as the bacterial injection.
(§2) Since B22a was effective in preventing infection of V. vulnificus in a surgical incision model, we tested it for efficacy for systemic infection in a mouse septicemia model (1). Groups of mice (strain CD-1) were first injected with […], followed 1 h later with an intraperitoneal injection of 1×10e6 colony forming units of V. vulnificus strain […]. The B22a was then injected intraperitoneally 1 h later and morbidity was monitored hourly for two days.
PB22N and other modified peptides were tested in a septicemic mouse model. V. vulnificus is a highly-pathogenic bacterium, causing septicemia and high mortality. In mice injected intraperitoneally with V. vulnificus, the majority of the mice had to be euthanized within 24 h due to severe symptoms associated with septicemia (FIG. 23B). […]

[1] = Toxicity of peptides injected intraperitoneally; format: in vivo, mice; conditions: intraperitoneal, 10 or 20 μM
Protocol: as §1, §2
PB22N and other modified peptides were tested in a septicemic mouse model. V. vulnificus is a highly-pathogenic bacterium, causing septicemia and high mortality. In mice injected intraperitoneally with V. vulnificus, the majority of the mice had to be euthanized within 24 h due to severe symptoms associated with septicemia (FIG. 23B). […] PB22N was effective in preventing mice from succumbing to systemic infection by the highly virulent V. vulnificus.

[2] = system: twenty representative Gram-negative bacteria of the Enterobacteriacea; experiment: MIC panel; format: cell-based; conditions: Table 10
Excerpt: The lack of efficacy of B22a in inhibiting systemic bacterial infection may have been due to it not being sufficiently stable in vivo. Therefore, three peptides were synthesized that contain the B22 amino acid sequence with additional modifications. Peptide AB22a (SEQ ID No. 32) has an N-terminal acetyl group (CH3C(O)) and a C-terminal amide (NH2). Peptide AB22P (SEQ ID No. 33) has an N-terminal acetyl group and a C-terminal polyethyleneglycol (PEG) (PEG=conjugated 8-amino 3,6-dioxaoctanoic acid). Peptide PB22N (SEQ ID No. 34) has a PEG at the N-terminus. In vitro, PB22N was effective in inhibiting the growth of the majority of the Gram-negative bacteria of the Enterobacteriacea. […] PB22N was also efficacious in inhibiting antibiotic-resistant clinical isolates of Klebsiella pneumoniae (Table 11).

E. coli ATCC 25922 = experiment: Bactericidal activity, viable colony formation; format: cell-based, Escherichia coli; conditions: for Viable colony formation, E. coli ATCC 25922 / Fold reduction, E. coli ATCC 25922: 2 μM peptide for 30 min; for Fold reduction, E. coli ATCC 25922: versus mock
Protocol: (§3) The broth dilution assay tested for the inhibition of growth. To determine whether B22a has bactericidal activity, viable colonies that formed after bacteria were treated with 2 μM of B22a for 30 min were enumerated (Table 7). Peptide B22a reduced viable colony formation by E. coli by over 2 orders of magnitude. B22a reduced viable colony formation by P. aeruginosa by over 3 orders of magnitudes. B22a, like its predecessor B22, is a bactericidal for Gram-negative bacteria.

P. aeruginosa PAO1 = experiment: Bactericidal activity, viable colony formation; format: cell-based, Pseudomonas aeruginosa; conditions: for Viable colony formation, P. aeruginosa PAO1 / Fold reduction, P. aeruginosa PAO1: 2 μM peptide for 30 min; for Fold reduction, P. aeruginosa PAO1: versus mock
Protocol: as §3

E. coli Top10pHNSHP45 = experiment: Killing of colistin-resistant E. coli harboring mcr-1 plasmid; format: cell-based, Escherichia coli; conditions: for Reduction of Top10pHNSHP45 colony formation: 5 minute incubation (FIG. 12B)
Protocol: 1×10^5 CFUs of the bacteria were incubated for 30 min with the concentration of the peptides or colistin shown. Approximately 500 CFUs were then added as a droplet onto nonselective media for 18 h. […] The numbers are the means of three independent assays and those in parenthesis are the range for one standard deviation.
Each antimicrobial peptide was assayed at a final concentration of 2 μM. The number of viable bacterial colonies were determined by plating on a non-selective media and enumerated. Each result is the average of three independent assays. The fold reduction in the colony forming units (CFU) was calculated by dividing the number of CFUs in the mock-treated sample with the number in the peptide-treated samples.

P. aeruginosa = experiment: Growth rate of culture, optical density; format: cell-based, Pseudomonas aeruginosa; conditions: 30 nM peptide
Protocol: FIG. 21 is a graph showing of peptide B22 (mock), B22a and B22m1 (each at […]) can reduce bacterial growth of P. aeruginosa, wherein the bacteria were grown in a plate reader at 37° C. and shaken. Optical density was monitored every ten (10) minutes to track the growth rate.
This low concentration of the peptide should further decrease the possibility of peptide oligomerization, as oligomerization should be dependent on the concentration of the peptide. The growth of the bacterial culture was then monitored over time. […] The cell division time of E. coli and Enterobacter cloacae were also in the absence or presence of 100 nM of B22a. The presence of B22a increased the doubling time of both bacterial by more than 2-fold. […] Should B22a and B22m1 inhibit bacteria growth as well as kill bacteria through the formation of higher order structures in the membrane, the peptides may have multiple mechanisms to act against bacteria survival. Peptides that act by multiple mechanisms may result in lower bacterial resistance to the peptides.

Vibrio vulnificus = experiment: Lethal sepsis model, surgical incision infection; conditions: no V. vulnificus
Protocol: The number of symptom-less mice in cages of 5 mice were recorded as a function of time. About 50 colony forming units of V. vulnificus were introduced into a surgical incision. The antimicrobial peptide B22 was introduced into the incision at 5 μM 1 h after the introduction of V. vulnificus to the surgical incision.
A lethal sepsis model from Vibrio vulnificus infection of CD-1 mice was selected. […] Cages of 5 mice were monitored every 2 h.

19 Gram-negative strains = experiment: MIC panel, number of strains inhibited; format: cell-based; conditions: of 19 Gram-negative strains
Protocol: as §4

Toll-like receptor 3 = experiment: Poly(I:C)-induced cytokine production in BEAS-2B cells, ELISA; format: cell-based, human; conditions: peptide 2 μM
Protocol: Lung epithelial BEAS-2B cells were induced with poly(I:C) at 0.1 μg/ml and the amount of IL-6 secreted into the media 20 h later was assessed by ELISA. Where present, the antimicrobial peptide was at a final concentration of 2 μM.
IL-6 production was quantified by ELISA using the OptEIA™ kit (BD Biosciences). A typical assay used 2×10^4 BEAS-2B cells/well grown for 24 h in flat-bottom 96-well plates. Poly(I:C) was added to a final concentration of 0.13 μg/ml.

[3] = system: human red blood cells (hRBCs); experiment: Hemolytic activity; format: cell-based
Protocol: The amount of hemoglobin released was measured by the absorbance at 435 nm after a 60-minute incubation with the antimicrobial peptide. The percentage of hRBC lysis was normalized to the amount hemoglobin released by the suspension of the hRBCs in deionized water. The background amount of hRBC lysis was determined by adding phosphate buffered saline (PBS) at the same volume as 8 μM of the peptide to the hRBC for 1 h.
The hemolytic activities of peptides were determined using human red blood cells (hRBCs) (Innovative Research, Inc., cat. # IPLA-WB3-18103). The hRBCs were washed three times with PBS and then resuspended in PBS. The hRBCs solution was mixed with serial dilutions of the peptides in PBS buffer. The reaction mixtures were incubated for 45 min at 37° C. After centrifugation at 94×g for 10 min, the intact hRBCs were pelleted and the hemoglobin released from hRBCs was monitored by measuring the absorbance of the supernatant at 415 nm. The background level of absorbance was measured in sampled incubated with only PBS buffer. 100% hemolysis was determined in sampled incubated with water. The percentage of hemolysis was calculated according to the following equation. Percentage of hemolysis=[(Asample−Ablank)/Awater]*100%
Mammalian cells are thought to be less susceptible to cathelicidin peptides in part because the composition of their membrane will be less likely to interact with the peptides. To address this directly, human red blood cells (hRBCs) were tested for lysis after a 45-minute incubation with the peptides. The total lysis of hRBCs was determined by adding water to the cells. The amount of lysis during handling was determined by the addition of phosphate buffered saline at the same volume as that of the peptides.

Cultured human cells = experiment: MTT cytotoxicity assay; format: cell-based
V. angustum = experiment: Vibrios killing activity; format: cell-based; conditions: increasing concentrations of SMAP-29C
Protocol: (§5) Vibrios bacteria such as V. angustum or V fischeri were cultured in LM at 30° C. The V. angustum culture was 200× diluted, V. fischeri culture was 40× diluted. […] The peptides were incubated with the bacteria for 1 hour at 30° C. before plated into the bacteria culture (100 μL peptides and 20 μL mock). The cultures were incubated overnight and Colony Forming Units (CFUs) were counted.

V. fischeri = experiment: Vibrios killing activity; format: cell-based; conditions: increasing concentrations of SMAP-29C
Protocol: as §5

V. harveyi = experiment: Vibrio growth with increasing peptide concentration; format: cell-based; conditions: increasing concentrations of SMAP-29C
Protocol: Bacteria within Vibrio genus are highly sensitive to the SMAP-29C peptide. Various strains of Vibrio were treated with increasing concentrations of SMAP-29C (See FIG. 7).

Protocol for Enterobacter cloacae: as §4
Protocol for Enterococcus faecalis: as §4
Protocol for Escherichia coli: as §4
Protocol for Klebsiella pneumoniae: as §4
Protocol for Serratia marcescens: as §4
Protocol for Staphylococcus aureus: as §4

For `CC[C@H](C)[C@H](NC(=O)[C@@H](NC(=O)[C@@H]1CCCN1C(=O)[C@H](CO)NC(=O)[C@H](CC(C)C)NC(=O)[C@H](CCCCN)NC(=O)[C@H](CCCCN)NC(=O)[C@H](Cc1ccccc1)NC(=O)[C@H](CC(C)C)NC(=O)[C@H](CCCCN)NC(=O)[C@H](CCCCN)NC(=O)[C@H](CC(C)C)NC(=O)[C@H](CCCCN)NC(=O)[C@H](CCCCN)NC(=O)[C@H](CCCNC(=N)N)NC(=O)[C@H](Cc1ccccc1)NC(=O)COCCOCCN)C(C)C)C(=O)N1CCC[C@H]1C(=O)N[C@@H](CC(C)C)C(=O)N[C@@H](CC(C)C)C(=O)N[C@@H](CCCCN)C(=O)N[C@@H](CC(C)C)C(=O)NCC(N)=O` [PB22N] (H-[AEEA]FRKKLKKLFKKLSPVIPLLKLG-NH2), the Minimal inhibitory concentration (Pseudomonas aeruginosa) was 1 µM (≈ 2.74 µg/mL), the “Outcome in mouse septicemia model” value (V. vulnificus) was “survived and did not exhibit symptoms of infection” and the “Toxicity signs in mice injected with peptide” value (“Toxicity signs” for short) [1] was “no obvious symptoms were observed; also recorded: no obvious effects on mice behavior or appearance”. The “MICs relative to B22a” value [2] was “approximately two-fold better”, the Minimal inhibitory concentration (Escherichia coli) was 1 µM and the Minimal inhibitory concentration (Klebsiella pneumoniae) was 1 µM (≈ 2.74 µg/mL).
In the case of “ARKKLKKLAKKLSPVIPLLKLG-NH2 [Peptide B22m2]”, the MIC (Pseudomonas aeruginosa) is reported as 4 µM, the “Viable colony formation, E. coli ATCC 25922” value (E. coli ATCC 25922) is reported as 8.7 × 10^4 and the “Fold reduction, E. coli ATCC 25922” value (E. coli ATCC 25922) is reported as 9. The “Reduction of viable colony formation by P. aeruginosa” value (P. aeruginosa PAO1) was “more than 2 logs”, the “Viable colony formation, P. aeruginosa PAO1” value (P. aeruginosa PAO1) was 7.3 × 10^3 and the “Fold reduction, P. aeruginosa PAO1” value (P. aeruginosa PAO1) was 164. The MIC (Escherichia coli) was 4 µM.
In the case of Ac-FRKKLKKLFKKLSPVIPLLKLG-NH2 [AB22a], the “Toxicity signs” value [1] is reported as “no obvious effects on mice behavior or appearance” and the “Toxicity signs” value ([1]; listed as AB22N) is reported as “no obvious symptoms were observed”.
For Colistin [reference compound], the “Killing of E. coli Top10pHNSHP45” value (E. coli Top10pHNSHP45; 2 μM, 5 minute incubation (FIG. 12A)) was “resistant”, the “Reduction of Top10pHNSHP45 colony formation” value (E. coli Top10pHNSHP45) was “little effect” and the MIC (Klebsiella pneumoniae; Table 8, clinical isolate 262 (NDM1+)) was over 8 µg/mL. The MIC (Klebsiella pneumoniae; Table 8, clinical isolate 284) was 16 µg/mL, the MIC (Klebsiella pneumoniae; Table 8, clinical isolate 330) was over 16 µg/mL and the MIC (Klebsiella pneumoniae; Table 8, clinical isolate 361) was over 16 µg/mL. For the same compound, the MIC (Klebsiella pneumoniae; Table 11, clinical isolate 265) was over 8 µg/mL, the MIC (Klebsiella pneumoniae; Table 11, clinical isolate 284) was 16 µg/mL and the MIC (Klebsiella pneumoniae; Table 11, clinical isolate 330) was over 16 µg/mL. For the same compound, the MIC (Klebsiella pneumoniae; Table 11, clinical isolate 361) was over 16 µg/mL.
For “FRKKLKKLAKKLSPVIPLLKLG-NH2 [Peptide B22m1]”, the MIC (Pseudomonas aeruginosa) was 2 µM, the “Killing of E. coli compared with B22a” value (E. coli ATCC 25922) was “comparable killing” and the “Viable colony formation, E. coli ATCC 25922” value (E. coli ATCC 25922) was 4.7 × 10^5. For the same compound, the “Fold reduction, E. coli ATCC 25922” value (E. coli ATCC 25922) was 170, the “Killing of P. aeruginosa compared with B22a” value (P. aeruginosa PAO1) was “comparable killing” and the “Viable colony formation, P. aeruginosa PAO1” value (P. aeruginosa PAO1) was under 20. The “Fold reduction, P. aeruginosa PAO1” value (P. aeruginosa PAO1) was over 6000, the “Growth rate of P. aeruginosa” value (P. aeruginosa) was “perceptibly reduced” and the MIC (Escherichia coli) was 2 µM.
For FRKKLKKLFKKLSPVIPLLKLG [Peptide B22], the MIC (Pseudomonas aeruginosa) was 2 µM, the MIC (Enterobacter cloacae) was 2 µM and the Minimal inhibitory concentration (Enterobacter cloacae) was 4 µM. The “MICs with the carbapenem-resistant K. pneumoniae” value (Klebsiella pneumoniae) was at most 4 µM, the Minimal inhibitory concentration (Serratia marcescens) was over 32 µM and the MIC (Enterococcus faecalis) was over 32 µM. The MIC (Staphylococcus aureus) was over 64 µM, the “MICs for two strains of S. aureus” value (Staphylococcus aureus) was at least 64 µM and the “Symptoms of mice treated with B22 alone” value (Vibrio vulnificus) was “no symptom throughout the experiment”.
In the case of “FRKKLKKLFKKLSPVIPLLKLG-NH2 [Peptide B22a]”, the MIC (Pseudomonas aeruginosa) is reported as 2 µM, the Minimal inhibitory concentration (Pseudomonas aeruginosa) is reported as 2 µM and the “Toxicity signs” value [1] is reported as “did not exhibit distress or signs of toxicity”. For the same compound, the Minimal inhibitory concentration (Enterobacter cloacae) was 4 µM, the MIC (Escherichia coli) was 2 µM and the Minimal inhibitory concentration (Klebsiella pneumoniae) was 2 µM. For the same compound, the Minimal inhibitory concentration (Serratia marcescens) was over 32 µM.
With “GLRKKFRKTRKRIQKLGRKIGKTGRKVWKAWREYGQIPYPCRI [CAP-11, reference compound]” the “Number of strains inhibited at 16 μg/ml” value (19 Gram-negative strains) was 16/19 and the Minimal inhibitory concentration (Escherichia coli) was over 32 µg/mL.
In the case of GRFKRFRKKLKKLFKKLSPVIPLL [BMAP-24], the “Viable colonies of Top10pHNSHP45 relative to BMAP27B” value (E. coli Top10pHNSHP45; 2 μM (FIG. 13)) is reported as “reduced the number of viable colonies relative to BMAP27B”, the IL-6 production (Toll-like receptor 3) is reported as “do not enhance” and the IL-8 production (Toll-like receptor 3) is reported as “do not enhance”. The MIC (Enterobacter cloacae) was 2 µM, the “MICs with the carbapenem-resistant K. pneumoniae” value (Klebsiella pneumoniae) was at most 4 µM and the MIC (Enterococcus faecalis) was 4 µM. The MIC (Staphylococcus aureus) was over 64 µM and the “MICs for two strains of S. aureus” value (Staphylococcus aureus) was at least 64 µM.
For GRFKRLRKKLKKLFKKLSPVIPLLHLG [BMAP-27B], the MIC (Pseudomonas aeruginosa) was 4 µM, the Minimal inhibitory concentration (Pseudomonas aeruginosa) was 4 µM and the RBC lysis [3] was “decreased RBC lysis compared to the control H2O”. For the same compound, the “Cytotoxicity, MTT assay” value (Cultured human cells) was “no increased cytotoxicity compared to the controls”, the MIC (Enterobacter cloacae) was 4 µM and the Minimal inhibitory concentration (Enterobacter cloacae) was 4 µM. It also gave an MIC (Staphylococcus aureus) of over 64 µM.
For LLGDFFRKSKEKIGKEFKRIVQRIKDFLR [LL-29], the “Number of strains inhibited at 16 μg/ml” value (19 Gram-negative strains) was 4/19.
With “RGLRRLGRKIAHGVKKCGPTVLRIIRIAGC [SMAP-29C]” the “Growth of V. angustum” value (V. angustum) was “growth reduction correlation to the concentration of SMAP-29C”, the “Growth of V. fischeri” value (V. fischeri) was “growth reduction correlation to the concentration of SMAP-29C” and the “Growth of V. harveyi” value (V. harveyi) was “growth reduction correlation to the concentration of SMAP-29C”. For the same compound, the “Reduction of Top10pHNSHP45 colony formation” value (E. coli Top10pHNSHP45) was “several logs”.
In the case of “RLGNFFRKVKEKIGGGLKKVGQKIKDFLGNLVPRTAS [RL-37]”, the “Number of strains inhibited at 16 μg/ml” value (19 Gram-negative strains) is reported as 7/19.
